Molecules are shown by their SMILES. Square brackets hold non-standard residues; d marks the D form. Peptide text beside a SMILES is read from it.

This passage reports inhibition results from ChEMBL document CHEMBL4665770, “Design and Discovery of Natural Cyclopeptide Skeleton Based Programmed Death Ligand 1 Inhibitor as Immune Modulator for Cancer Therapy” (J Med Chem, 2020).

The assay concerns the target Programmed cell death protein 1/Programmed cell death 1 ligand 1 (Homo sapiens) (UniProt Q15116+Q9NZQ7). Briefly: Inhibition of PD1-Tag2/PD-L1-Tag1 (unknown origin) protein-protein interaction at 20 uM preincubated for 15 mins followed by addition of anti-Tag1-Eu3+ and anti-Tag2-XL665 measured after 3 hrs by HTRF assay relative to control. The format is protein-complex assay. As to conditions: time 195.0 min.

Turning to `CC(C)C[C@@H]1NC(=O)[C@H](CCCNC(=N)N)NC(=O)[C@H](C(C)C)NC(=O)[C@@H]2CCCN2C(=O)[C@@H](Cc2ccccc2)NC(=O)[C@H](CC(C)C)NC(=O)[C@H]([C@@H](C)O)NC(=O)[C@@H]2CCCN2C(=O)[C@H](CC(=O)O)NC(=O)[C@@H](Cc2ccccc2)NC1=O` (cyclo(DPTL[dF]PVRL[dF])), the inhibition turned out to be 12.9%. Next, `CC(C)C[C@@H]1NC(=O)[C@H](CCCNC(=N)N)NC(=O)[C@H](C(C)C)NC(=O)[C@H](CC(=O)O)NC(=O)[C@@H]2CCCN2C(=O)[C@@H](Cc2ccccc2)NC(=O)[C@H](CC(C)C)NC(=O)[C@H]([C@@H](C)O)NC(=O)[C@@H]2CCCN2C(=O)[C@@H](Cc2ccccc2)NC1=O` (cyclo(DVRL[dF]PTL[dF]P)): 1.93%. The same measure for `CC(C)C[C@@H]1NC(=O)[C@H](CCCNC(=N)N)NC(=O)[C@H](C(C)C)NC(=O)[C@H](C)NC(=O)[C@@H](Cc2ccccc2)NC(=O)[C@H](C)NC(=O)[C@H](CCCNC(=N)N)NC(=O)[C@H](C(C)C)NC(=O)[C@@H]2CCCN2C(=O)[C@@H](Cc2ccccc2)NC1=O` (cyclo(AVRL[dF]PVRA[dF])): -0.657%. Regarding `CC(C)C[C@@H]1NC(=O)[C@H](CCCNC(=N)N)NC(=O)[C@H](C(C)C)NC(=O)[C@@H]2CCCN2C(=O)[C@@H](Cc2ccccc2)NC(=O)[C@H](CC(C)C)NC(=O)[C@H](CCCNC(=N)N)NC(=O)[C@H](C(C)C)NC(=O)[C@@H]2CCCN2C(=O)[C@@H](C)NC1=O` (cyclo(L[dA]PVRL[dF]PVR)), the inhibition amounted to 9.49%. Next, `CC(C)C[C@@H]1NC(=O)[C@H](CCCNC(=N)N)NC(=O)[C@H](C(C)C)NC(=O)[C@@H]2CCCN2C(=O)[C@@H](Cc2ccccc2)NC(=O)[C@H](Cc2cnc[nH]2)NC(=O)[C@H](CC(=O)O)NC(=O)[C@H]([C@@H](C)O)NC(=O)[C@@H]2CCCN2C(=O)[C@@H](Cc2ccccc2)NC1=O` (cyclo(DH[dF]PVRL[dF]PT)): -8.61%; `CC(C)C[C@@H]1NC(=O)[C@H](CC(=O)O)NC(=O)[C@H]([C@@H](C)O)NC(=O)[C@@H]2CCCN2C(=O)[C@@H](Cc2ccccc2)NC(=O)[C@H](Cc2cnc[nH]2)NC(=O)[C@H](CCCNC(=N)N)NC(=O)[C@H](C(C)C)NC(=O)[C@@H]2CCCN2C(=O)[C@@H](Cc2ccccc2)NC1=O` (cyclo(DL[dF]PVRH[dF]PT)): 7.13%; `CC(C)C[C@@H]1NC(=O)[C@H](CC(=O)O)NC(=O)[C@H]([C@@H](C)O)NC(=O)[C@@H]2CCCN2C(=O)[C@@H](Cc2ccccc2)NC(=O)[C@H](CC(C)C)NC(=O)[C@H](CC(N)=O)NC(=O)[C@H](C(C)C)NC(=O)[C@@H]2CCCN2C(=O)[C@@H](Cc2ccccc2)NC1=O` (cyclo(DL[dF]PVNL[dF]PT)): 16.6%.

As to `CC(NCCCC[C@@H]1NC(=O)[C@@H](Cc2ccccc2)NC(=O)[C@H](CC(C)C)NC(=O)[C@H](CC(=O)O)NC(=O)[C@H]([C@@H](C)O)N(C)C(=O)[C@@H]2CCCN2C(=O)[C@@H](Cc2c[nH]c3ccccc23)NC(=O)[C@H](CC(C)C)NC(=O)[C@H](CCCNC(=N)N)NC(=O)[C@H](C(C)C)NC1=O)=C1C(=O)CC(C)(C)CC1=O`, the inhibition was found to be 32.3%. Next, `CC(C)C[C@@H]1NC(=O)[C@H](Cc2ccc(O)cc2)NC(=O)[C@H]([C@@H](C)O)NC(=O)[C@@H]2CCCN2C(=O)[C@@H](Cc2ccccc2)NC(=O)[C@H](CC(C)C)NC(=O)[C@H](CCCNC(=N)N)NC(=O)[C@H](C(C)C)NC(=O)[C@@H]2CCCN2C(=O)[C@@H](Cc2ccccc2)NC1=O` (cyclo(L[dF]PTYL[dF]PVR)): 8.25%.

With `CC(C)C[C@@H]1NC(=O)[C@H](CC(=O)O)NC(=O)[C@H]([C@@H](C)O)NC(=O)[C@@H]2CCCN2C(=O)[C@@H](Cc2ccccc2)NC(=O)[C@H](CC(C)C)NC(=O)[C@H](CCCNC(=N)N)NC(=O)[C@H](C(C)C)NC(=O)[C@@H]2CCCN2C(=O)[C@@H](Cc2ccc(O)cc2)NC1=O` (cyclo(DL[dY]PVRL[dF]PT)), the inhibition is 18.7%. On to `CC(C)C[C@@H]1NC(=O)[C@H](CCCNC(=N)N)NC(=O)[C@H]([C@@H](C)O)NC(=O)[C@@H]2CCCN2C(=O)[C@@H](Cc2ccccc2)NC(=O)[C@H](CC(C)C)NC(=O)[C@H](CC(=O)O)NC(=O)[C@H](C)NC(=O)[C@@H]2CCCN2C(=O)[C@@H](Cc2ccccc2)NC1=O` (cyclo(ADL[dF]PTRL[dF]P)), for which the inhibition was 41.2%.

Turning to `CC(C)C[C@@H]1NC(=O)[C@H](CCCNC(=N)N)NC(=O)[C@H](C(C)C)NC(=O)[C@@H]2CCCN2C(=O)[C@H](CC(=O)O)NC(=O)[C@@H](Cc2ccccc2)NC(=O)[C@H](CC(C)C)NC(=O)[C@H]([C@@H](C)O)NC(=O)[C@@H]2CCCN2C(=O)[C@@H](Cc2ccccc2)NC1=O` (cyclo(DPVRL[dF]PTL[dF])), the inhibition was -0.905%.

`CC(C)C[C@@H]1NC(=O)[C@H](CCC(=O)O)NC(=O)[C@H]([C@@H](C)O)NC(=O)[C@@H]2CCCN2C(=O)[C@@H](Cc2ccccc2)NC(=O)[C@H](CC(C)C)NC(=O)[C@H](CCCNC(=N)N)NC(=O)C(C(C)C)NC(=O)[C@@H]2CCCN2C(=O)[C@@H](Cc2ccccc2)NC1=O` (stereo partly specified): the inhibition was 20.6%. Next, `CC(NCCCC[C@@H]1NC(=O)[C@@H](Cc2ccccc2)NC(=O)[C@H](CC(C)C)N(C)C(=O)[C@H](CC(=O)O)NC(=O)[C@H]([C@@H](C)O)NC(=O)[C@@H]2CCCN2C(=O)[C@@H](Cc2c[nH]c3ccccc23)NC(=O)[C@H](CC(C)C)NC(=O)[C@H](CCCNC(=N)N)NC(=O)[C@H](C(C)C)NC1=O)=C1C(=O)CC(C)(C)CC1=O`: 19.5%. Next, `CC[C@H](C)[C@@H]1NC(=O)[C@@H]2CCCN2C(=O)[C@@H](Cc2ccccc2)NC(=O)[C@H](CC(C)C)NC(=O)[C@H](CC(=O)O)NC(=O)[C@H]([C@@H](C)O)NC(=O)[C@@H]2CCCN2C(=O)[C@@H](Cc2c[nH]c3ccccc23)NC(=O)[C@H](CC(C)C)NC(=O)[C@H](CCCNC(=N)N)NC1=O` (cyclo(DL[dF]PIRL[dW]PT)): 33.3%. The same measure for `CC(NCCCC[C@@H]1NC(=O)[C@@H](Cc2ccccc2)NC(=O)[C@H](CC(C)C)NC(=O)[C@H](CC(=O)O)NC(=O)[C@H]([C@@H](C)O)NC(=O)[C@@H]2CCCN2C(=O)[C@@H](Cc2c[nH]c3ccccc23)NC(=O)[C@H](CC(C)C)NC(=O)[C@H](CCCNC(=N)N)NC(=O)[C@H](C(C)C)N(C)C1=O)=C1C(=O)CC(C)(C)CC1=O`: 29.1%.

For `CC(C)C[C@@H]1NC(=O)[C@H](CC(=O)O)NC(=O)[C@H]([C@@H](C)O)NC(=O)[C@@H]2CCCN2C(=O)[C@@H](Cc2ccccc2)NC(=O)[C@H](CC(C)C)NC(=O)[C@H](Cc2cnc[nH]2)NC(=O)[C@H](C(C)C)NC(=O)[C@@H]2CCCN2C(=O)[C@@H](Cc2ccccc2)NC1=O` (cyclo(DL[dF]PVHL[dF]PT)), the inhibition amounted to 6.8%. Consider `CC(C)C[C@@H]1NC(=O)[C@H](CCCNC(=N)N)NC(=O)[C@H](C(C)C)NC(=O)[C@@H]2CCCN2C(=O)[C@@H](Cc2ccccc2)NC(=O)[C@H](CC(=O)O)NC(=O)[C@H](CC(C)C)NC(=O)[C@H]([C@@H](C)O)NC(=O)[C@@H]2CCCN2C(=O)[C@@H](Cc2ccccc2)NC1=O` (cyclo(D[dF]PVRL[dF]PTL)), for which the inhibition was -5.92%.

Consider `CC(NCCCC[C@@H]1NC(=O)[C@@H](Cc2ccccc2)NC(=O)[C@H](CC(C)C)NC(=O)[C@H](CC(=O)O)NC(=O)[C@H](C(C)C)NC(=O)[C@@H]2CCCN2C(=O)[C@@H](Cc2c[nH]c3ccccc23)NC(=O)[C@H](CC(C)C)NC(=O)[C@H](CCCNC(=N)N)NC(=O)[C@H](C(C)C)NC1=O)=C1C(=O)CC(C)(C)CC1=O`, for which the inhibition came to 3.86%. The same measure for `CC(C)C[C@@H]1NC(=O)[C@H](CCCNC(=N)N)NC(=O)[C@H](C(C)C)NC(=O)[C@@H]2CCCN2C(=O)[C@@H](Cc2ccccc2)NC(=O)[C@H](CC(C)C)NC(=O)[C@H](CCCNC(=N)N)NC(=O)[C@H](C(C)C)NC(=O)[C@@H]2CCCN2C(=O)[C@@H](Cc2ccccc2)NC1=O` (cyclo(L[dF]PVRL[dF]PVR)): -5.54%. Next, `CC(C)C[C@@H]1NC(=O)[C@H](CCCNC(=N)N)NC(=O)[C@H](C)NC(=O)[C@@H]2CCCN2C(=O)[C@@H](Cc2ccccc2)NC(=O)[C@H](C)NC(=O)[C@H](CCCNC(=N)N)NC(=O)[C@H](C)NC(=O)[C@@H]2CCCN2C(=O)[C@@H](Cc2ccccc2)NC1=O` (cyclo(ARA[dF]PARL[dF]P)): 0.7%. Turning to `CC(C)C[C@@H]1NC(=O)[C@H](CC(N)=O)NC(=O)[C@H]([C@@H](C)O)NC(=O)[C@@H]2CCCN2C(=O)[C@@H](Cc2ccccc2)NC(=O)[C@H](CC(C)C)NC(=O)[C@H](CCCNC(=N)N)NC(=O)[C@H](C(C)C)NC(=O)[C@@H]2CCCN2C(=O)[C@@H](Cc2ccccc2)NC1=O` (cyclo(L[dF]PTNL[dF]PVR)), the inhibition was 17%. `CC(C)C[C@@H]1NC(=O)[C@H](CC(=O)O)NC(=O)[C@H]([C@@H](C)O)NC(=O)[C@@H]2CCCN2C(=O)[C@@H](Cc2ccccc2)NC(=O)[C@H](CC(C)C)NC(=O)[C@H](CCCNC(=N)N)NC(=O)[C@H](C(C)C)NC(=O)[C@@H]2CCCN2C(=O)[C@@H](Cc2c[nH]c3ccccc23)NC1=O` (cyclo(DL[dW]PVRL[dF]PT)): the inhibition was 35.8%. Next, `CC(C)C[C@@H]1NC(=O)[C@H](C)NC(=O)[C@H](C(C)C)NC(=O)[C@@H]2CCCN2C(=O)[C@@H](Cc2ccccc2)NC(=O)[C@H](CC(C)C)NC(=O)[C@H](CCCNC(=N)N)NC(=O)[C@H](C(C)C)NC(=O)[C@@H]2CCCN2C(=O)[C@@H](Cc2ccccc2)NC1=O` (cyclo(AL[dF]PVRL[dF]PV)): 28.8%; `CC(C)C[C@@H]1NC(=O)[C@H](CCCNC(=N)N)NC(=O)[C@H]([C@@H](C)O)NC(=O)[C@@H]2CCCN2C(=O)[C@@H](Cc2ccccc2)NC(=O)[C@H](CC(C)C)NC(=O)[C@H](CCCNC(=N)N)NC(=O)[C@H](C(C)C)NC(=O)[C@@H]2CCCN2C(=O)[C@@H](Cc2ccccc2)NC1=O` (cyclo(L[dF]PTRL[dF]PVR)): 16.9%; `CC(C)C[C@@H]1NC(=O)[C@H](CCCNC(=N)N)NC(=O)[C@H](C(C)C)NC(=O)[C@@H]2CCCN2C(=O)[C@@H](Cc2ccccc2)NC(=O)[C@H](C)NC(=O)[C@H](CCCNC(=N)N)NC(=O)[C@H](C)NC(=O)[C@@H]2CCCN2C(=O)[C@@H](Cc2ccccc2)NC1=O` (cyclo(ARA[dF]PVRL[dF]P)): 43.6%.
